Laboratory results reported in paper PMC10388311, “Innovative Strategy toward Mutant CFTR Rescue in Cystic Fibrosis: Design and Synthesis of Thiadiazole Inhibitors of the E3 Ligase RNF5” (Journal of Medicinal Chemistry, 2023).
Entries after “also recorded” stand apart in the source; their conditions may differ.

How the values were obtained:
[1] = target: T1, recombinant truncated RNF5 (aa 1–117) (Homo sapiens, UniProt Q99942); assay: MicroScale Thermophoresis (MST) binding check; conditions: RED-NHS labeled RNF5 (aa 1–117); compound at maximum concentration allowed by solubility (12: 100 M [sic])
T1 construct: human RNF5 protein (aa 1–117) truncated to exclude the transmembrane domains; GST (followed by TEV protease site) (N, cleaved yes); host or cells: Escherichia coli BL21(DE3)
Description: (§1) The bindings of compounds 12, 40, and 42 were initially evaluated by MicroScale Thermophoresis (MST) using a purified recombinant truncated form of RNF5 (aa 1–117), lacking the C-terminal transmembrane domains. The protein was covalently labeled with a red dye (NHS) on the primary amines (lysine residues). […] NMR experiments on the recombinant RNF5 form were further performed to test the direct binding of the three compounds to the protein with a more sensitive, label-free, independent approach. Analogs 12, 40, and 42 were tested at 50 μM in the absence and in the presence of 3 μM RNF5 (1–117) protein. […] Indeed, for all three compounds, the NMR signals of their methyls are present in the STD spectra, and in the WaterLOGSY spectra, their signals change from negative to positive in the presence of the protein, indisputably highlighting the formation of compound–protein binding events. […] It has to be noted that NMR is a very sensitive technique that allows detecting also compounds weakly binding to their target protein independent of the possible downstream biological effects. Indeed, we can speculate that compounds 40 and 42 may bind to RNF5 without inhibiting its ubiquitin ligase activity, thus not leading to mutant CFTR rescue. These compounds could even act as RNF5 activators, similar to analog-1.
A construct coding for human RNF5 protein (aa 1–117) truncated to exclude the transmembrane domains, with an N-terminal GST-tag followed by the recognition site for TEV protease (pET vector backbone), was purchased from CliniSciences. A similar construct was recently described in the work of Ruan et al.[44] […]
Purified RNF5 was labeled using a Monolith protein labeling kit RED-NHS 2nd generation (NanoTemper Technologies, München, Germany) following manufacturer’s instructions. Labeled protein (5 nM) was first tested in a pre-test assay for optimal fluorescence, absence of aggregation, and sticking to capillaries using MST buffer [PBS, 0.05% Tween-20, 0.1% PEG-8000, 1 μM ZnCl2] with or without 1 mM DTT. […]

[2] = target: T2, recombinant RNF5 (1–117) protein (Homo sapiens, UniProt Q99942); assay: WaterLOGSY and STD NMR binding experiments; conditions: compound 50 μM, 3 μM RNF5 (1–117)
T2 construct: human RNF5 protein (aa 1–117) truncated to exclude the transmembrane domains; GST (followed by TEV protease site) (N, cleaved yes); host or cells: Escherichia coli BL21(DE3)
Description: as §1, with “Indeed, we can speculate that compounds 40 and 42 may bind to RNF5 without inhibiting its ubiquitin ligase activity, thus not leading to mutant CFTR rescue. These compounds could even act as RNF5 activators, similar to analog-1.” left out
All the NMR experiments were recorded at 298 K using a 5 mm CryoProbe QCI ^1H/^19F–^13C/^15N–D quadruple resonance, a shielded z-gradient coil, and an automatic sample changer SampleJet NMR system with temperature control. […] For all samples, a 1D ^1H NMR experiment was recorded, the water suppression was obtained using the standard NOESY (nuclear Overhauser effect spectroscopy) preset Bruker pulse sequence, with 64k data points, a spectral width (sw) of 30 ppm, 64 scans, acquisition time (aq) of 1.835 s, a relaxation delay (d1) of 4 s, and a mixing time of 10 ms. […] WaterLOGSY experiments were recorded with the same parameters used in solubility assays, but with a higher number of scans (512); STD experiments were recorded with 128 scans, with two on (0.7 and 1 ppm) and one off (−50 ppm) resonance spectra, a Gaussian-shaped train pulse of 50 ms each was employed, with a total saturation time of the protein envelope of 5, 3, 2, 1.5, 1, or 0.5 s. […]

T1 sequence (Q99942 1-117): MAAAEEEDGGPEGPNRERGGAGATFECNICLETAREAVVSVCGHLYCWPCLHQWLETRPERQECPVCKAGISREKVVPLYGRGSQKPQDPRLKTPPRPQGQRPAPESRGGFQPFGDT
T2 sequence (Q99942 1-117): as above

Compound | direct binding to RNF5 by MST (binding check) [1] | binding to RNF5 by WaterLOGSY and STD NMR [2]
Cc1ns/c(=N\C(=N\c2ccccc2)c2ccccc2)n1Cc1ccc(C(=O)O)cc1 [Compound 12, 4-(((Z)-3-Methyl-5-(((E)-phenyl(phenylimino)methyl)imino)-1,2,4-thiadiazol-4(5H)-yl)methyl)benzoic Acid] | compound 12 is binding to RNF5; also recorded: evidence of direct binding | bind the recombinant RNF5 protein
Cc1ns/c(=N\C(=N\c2ccncc2)c2ccccc2)n1Cc1ccccc1 [Compound 40, (E)-N-((Z)-4-Benzyl-3-methyl-1,2,4-thiadiazol-5(4H)-ylidene)-N′-(pyridin-4-yl)benzimidamide] | observed only for compound 12 | bind the recombinant RNF5 protein
Cc1ns/c(=N\c2ccccn2)n1Cc1ccccc1 [Compound 42, (Z)-4-Benzyl-3-methyl-N-(pyridin-2-yl)-1,2,4-thiadiazol-5(4H)-imine] | observed only for compound 12 | bind the recombinant RNF5 protein
